Results: patent US7919493B2, “Anititumoral ecteinascidin derivatives” (Pharma Mar, S.A., priority 2001, dated 2011)
Converted amounts (≈) assume the structure as drawn.

Legend:
Format in all cases: cell-based
[1] = system: MEL-28 (monolayer culture of a human melanoma); experiment: Cytotoxic activity screening, MEL-28 cells; details: three days of incubation, Crystal Violet; for IC50: Homo sapiens, SK-MEL-28, 72 h
Experimental: (§1) Cell Cultures. Cells were maintained in logarithmic phase of growth in Eagle's Minimum Essential Medium, with Earle's Balanced Salts, with 2.0 mM L-glutamine, with non-essential amino acids, without sodium bicarbonate (EMEM/neaa); supplemented with 10% Fetal Calf Serum (FCS), 10^−2 M sodium bicarbonate and 0.1 g/l penicillin-G+streptomycin sulfate.
(§2) A simple screening procedure has been carried out to determine and compare the antitumour activity of these compounds, using an adapted form of the method described by Bergeron et al (1984). The tumour cell line employed have been P-388 (suspension culture of a lymphoid neoplasm from DBA/2 mouse), A-549 (monolayer culture of a human lung carcinoma), HT-29 (monolayer culture of a human colon carcinoma) and MEL-28 (monolayer culture of a human melanoma).
(§3) A-549, HT-29 and MEL-28 were seeded into 16 mm wells at 2×10^4 cells per well in 1 ml aliquots of MEM 10FCS containing the indicated concentration of drug. A separate set of cultures without drug was seeded as control growth to ensure that cells remained in exponential phase of growth. All determinations were carried out in duplicate. After three days of incubation at 37° C., 10% CO2 in a 98% humid atmosphere, the wells were stained with 0.1% Crystal Violet. An approximately IC50 was determined by comparing the growth in wells with drug to the growth in wells control.

[2] = system: A-549 (monolayer culture of a human lung carcinoma); experiment: Cytotoxic activity screening, A-549 cells; details: three days of incubation, Crystal Violet; for IC50: Homo sapiens, A549, 72 h
Experimental: as §1
as §3, with “A” for “A-549, HT-29 and MEL-28 were seeded into 16 mm wells at 2×10^4 cells per well in 1 ml aliquots of MEM 10FCS containing the indicated concentration of drug. A”

[3] = system: P-388 (suspension culture of a lymphoid neoplasm from DBA/2 mouse); experiment: Cytotoxic activity screening, P-388 cells; details: three days of incubation, approximate IC50 vs control growth; for IC50: Mus musculus, P388, 72 h
Experimental: as §1, §2
P-388 cell were seeded into 16 mm wells at 1×10^4 cells per well in 1 ml aliquots of MEM 5FCS containing the indicated concentration of drug. A separate set of cultures without drug was seeded as control growth to ensure that cells remained in exponential phase of growth. All determinations were carried out in duplicate.

[4] = system: HT-29 (monolayer culture of a human colon carcinoma); experiment: Cytotoxic activity screening, HT-29 cells; details: three days of incubation, Crystal Violet; for IC50: Homo sapiens, HT-29, 72 h
Experimental: as §1
as §3, with “A” for “A-549, HT-29 and MEL-28 were seeded into 16 mm wells at 2×10^4 cells per well in 1 ml aliquots of MEM 10FCS containing the indicated concentration of drug. A”

DU-145 = experiment: Cytotoxic activity screening, DU-145 cells; details: for IC50: Homo sapiens, DU-145, DU-145 cells; for IC50 DU-145: DU-145 cells
Experimental: [The source words this procedure for another cell line and reports this cell line under the same test.] as §1, §2
Examples of biological activities of the compounds described in the present application are in Table IV (IC50 (ng/mL)) on the following pages.

[5] = approximate IC50, listed as 18a*

SMILES | IC50 ([1]; approximate IC50) | IC50 ([2]; approximate IC50) | IC50 [3] | IC50 ([4]; approximate IC50) | IC50 (DU-145) | further results
COc1c(C)cc2c(c1O)[C@@H]1C3[C@@H]4SC[C@H](NC(=O)C(NC(=O)C(C)N)C(C)C)C(=O)OC[C@@H](c5c6c(c(C)c(OC(C)=O)c54)OCO6)N3[C@@H](O)[C@H](C2)N1C (stereo partly shown) [Compound 4s] | 1 ng/mL (≈ 1.28 nM) | 1 ng/mL (≈ 1.28 nM) | 1 ng/mL (≈ 1.28 nM) | 1 ng/mL (≈ 1.28 nM) | 1 ng/mL (≈ 1.28 nM) | –
COc1c(C)cc2c(c1O)[C@@H]1C3[C@@H]4SC[C@H](NC(=O)C(NC(=O)C(C)NC(C)=O)C(C)C)C(=O)OC[C@@H](c5c6c(c(C)c(OC(C)=O)c54)OCO6)N3[C@@H](O)[C@H](C2)N1C (stereo partly shown) [Compound 4t] | 10 ng/mL (≈ 12.1 nM) | 100 ng/mL (≈ 121 nM) | 100 ng/mL (≈ 121 nM) | 10 ng/mL (≈ 12.1 nM) | 10 ng/mL (≈ 12.1 nM) | –
COc1c(C)cc2c(c1O)[C@@H]1C3[C@@H]4SC[C@H](NC(=O)C(NC(=O)C(C)NC(=O)/C=C/c5ccccc5)C(C)C)C(=O)OC[C@@H](c5c6c(c(C)c(OC(C)=O)c54)OCO6)N3[C@@H](O)[C@H](C2)N1C (stereo partly shown) [Compound 4u] | 5 ng/mL (≈ 5.47 nM) | 5 ng/mL (≈ 5.47 nM) | 5 ng/mL (≈ 5.47 nM) | 5 ng/mL (≈ 5.47 nM) | 5 ng/mL (≈ 5.47 nM) | –
COc1c(C)cc2c(c1O)[C@@H]1C3[C@@H]4SC[C@H](NC(=O)C(C)N)C(=O)OC[C@@H](c5c6c(c(C)c(OC(C)=O)c54)OCO6)N3[C@@H](O)[C@H](C2)N1C (stereo partly shown) [Compound 4v] | 1 ng/mL (≈ 1.46 nM) | 1 ng/mL (≈ 1.46 nM) | 1 ng/mL (≈ 1.46 nM) | 1 ng/mL (≈ 1.46 nM) | 1 ng/mL (≈ 1.46 nM) | –
COc1c(C)cc2c(c1O)[C@@H]1C3[C@@H]4SC[C@H](NC(=O)C(C)NC(=O)/C=C/c5ccccc5)C(=O)OC[C@@H](c5c6c(c(C)c(OC(C)=O)c54)OCO6)N3[C@@H](O)[C@H](C2)N1C (stereo partly shown) [Compound 4x] | 1 ng/mL (≈ 1.23 nM) | 1 ng/mL (≈ 1.23 nM) | 1 ng/mL (≈ 1.23 nM) | 1 ng/mL (≈ 1.23 nM) | 1 ng/mL (≈ 1.23 nM) | –
COC(=O)c1ccccc1C(=O)N[C@H]1CS[C@@H]2c3c(OC(C)=O)c(C)c4c(c3[C@H](COC1=O)N1C2[C@H]2c3c(cc(C)c(OC)c3O)C[C@@H]([C@@H]1C#N)N2C)OCO4 (stereo partly shown) [Compound 6] | 1 ng/mL (≈ 1.27 nM) | 1 ng/mL (≈ 1.27 nM) | 1 ng/mL (≈ 1.27 nM) | 1 ng/mL (≈ 1.27 nM) | 1 ng/mL (≈ 1.27 nM) | –
COc1c(C)cc2c(c1O)[C@@H]1C3[C@@H]4SC[C@H](O)C(=O)OC[C@@H](c5c6c(c(C)c(OC(C)=O)c54)OCO6)N3[C@@H](C#N)[C@H](C2)N1C (stereo partly shown) [Compound 15] | 5 ng/mL (≈ 8.02 nM) | 5 ng/mL (≈ 8.02 nM) | 5 ng/mL (≈ 8.02 nM) | 5 ng/mL (≈ 8.02 nM) | 5 ng/mL (≈ 8.02 nM) | –
COc1c(C)cc2c(c1O)[C@@H]1C3[C@@H]4SC[C@@H](OC(C)=O)C(=O)OC[C@@H](c5c6c(c(C)c(OC(C)=O)c54)OCO6)N3[C@@H](C#N)[C@H](C2)N1C (stereo partly shown) [Compound 17a] | – | – | – | – | – | IC50 MEL-28 ([1]; approximate IC50): 0.1 ng/mL (≈ 0.15 nM); IC50 A-549 ([2]; approximate IC50): 0.1 ng/mL (≈ 0.15 nM); IC50 P-388 [3]: 0.1 ng/mL (≈ 0.15 nM); IC50 HT-29 ([4]; approximate IC50): 0.1 ng/mL (≈ 0.15 nM); IC50 DU-145 (DU-145): 0.1 ng/mL (≈ 0.15 nM)
COc1c(C)cc2c(c1O)[C@@H]1C3[C@@H]4SC[C@H](OC(=O)C(F)(F)F)C(=O)OC[C@@H](c5c6c(c(C)c(OC(C)=O)c54)OCO6)N3[C@@H](C#N)[C@H](C2)N1C (stereo partly shown) [Compound 17b] | 5 ng/mL (≈ 6.95 nM) | 5 ng/mL (≈ 6.95 nM) | 5 ng/mL (≈ 6.95 nM) | 5 ng/mL (≈ 6.95 nM) | 5 ng/mL (≈ 6.95 nM) | –
CCCC(=O)O[C@H]1CS[C@@H]2c3c(OC(C)=O)c(C)c4c(c3[C@H](COC1=O)N1C2[C@H]2c3c(cc(C)c(OC)c3O)C[C@@H]([C@@H]1C#N)N2C)OCO4 (stereo partly shown) [Compound 17c] | 1 ng/mL (≈ 1.44 nM) | 1 ng/mL (≈ 1.44 nM) | 1 ng/mL (≈ 1.44 nM) | 1 ng/mL (≈ 1.44 nM) | 1 ng/mL (≈ 1.44 nM) | –
CCCCCCCC(=O)O[C@H]1CS[C@@H]2c3c(OC(C)=O)c(C)c4c(c3[C@H](COC1=O)N1C2[C@H]2c3c(cc(C)c(OC)c3O)C[C@@H]([C@@H]1C#N)N2C)OCO4 (stereo partly shown) [Compound 17e] | 1 ng/mL (≈ 1.33 nM) | 1 ng/mL (≈ 1.33 nM) | 1 ng/mL (≈ 1.33 nM) | 1 ng/mL (≈ 1.33 nM) | 1 ng/mL (≈ 1.33 nM) | –
CCCCCCCCCCCCCCCC(=O)O[C@H]1CS[C@@H]2c3c(OC(C)=O)c(C)c4c(c3[C@H](COC1=O)N1C2[C@H]2c3c(cc(C)c(OC)c3O)C[C@@H]([C@@H]1C#N)N2C)OCO4 (stereo partly shown) [Compound 17f] | > 1000 ng/mL | > 1000 ng/mL | > 1000 ng/mL | > 1000 ng/mL | > 1000 ng/mL | –
COc1c(C)cc2c(c1O)[C@@H]1C3[C@@H]4SC[C@H](OC(=O)/C=C/c5ccccc5)C(=O)OC[C@@H](c5c6c(c(C)c(OC(C)=O)c54)OCO6)N3[C@@H](C#N)[C@H](C2)N1C (stereo partly shown) [Compound 17h] | 0.1 ng/mL (≈ 0.133 nM) | 0.1 ng/mL (≈ 0.133 nM) | 0.1 ng/mL (≈ 0.133 nM) | 0.1 ng/mL (≈ 0.133 nM) | 0.1 ng/mL (≈ 0.133 nM) | –
COc1c(C)cc2c(c1O)[C@@H]1C3[C@@H]4SC[C@@H](OC(C)=O)C(=O)OC[C@@H](c5c6c(c(C)c(OC(C)=O)c54)OCO6)N3[C@@H](C#N)[C@H](C2)N1C (stereo partly shown) [Compound 18a*] | – | – | – | – | – | IC50 MEL-28 [1, 5]: 1.0 ng/mL (≈ 1.5 nM); IC50 A-549 [2, 5]: 1.0 ng/mL (≈ 1.5 nM); IC50 P-388 ([3]; listed as 18a*): 1.0 ng/mL (≈ 1.5 nM); IC50 HT-29 [4, 5]: 1.0 ng/mL (≈ 1.5 nM); IC50 DU-145 (DU-145; listed as 18a*): 1.0 ng/mL (≈ 1.5 nM)
COc1c(C)cc2c(c1O)[C@@H]1C3[C@@H]4SC[C@H](O)C(=O)OC[C@@H](c5c6c(c(C)c(OC(C)=O)c54)OCO6)N3[C@@H](O)[C@H](C2)N1C (stereo partly shown) [Compound 19] | 1 ng/mL (≈ 1.63 nM) | 1 ng/mL (≈ 1.63 nM) | 1 ng/mL (≈ 1.63 nM) | 1 ng/mL (≈ 1.63 nM) | 1 ng/mL (≈ 1.63 nM) | –
COc1c(C)cc2c(c1O)[C@@H]1C3[C@@H]4SC[C@@H](OC(C)=O)C(=O)OC[C@@H](c5c6c(c(C)c(OC(C)=O)c54)OCO6)N3[C@@H](O)[C@H](C2)N1C (stereo partly shown) [Compound 21a] | 1 ng/mL (≈ 1.52 nM) | 1 ng/mL (≈ 1.52 nM) | 0.5 ng/mL (≈ 0.761 nM) | 1 ng/mL (≈ 1.52 nM) | 1 ng/mL (≈ 1.52 nM) | –
CCCC(=O)O[C@H]1CS[C@@H]2c3c(OC(C)=O)c(C)c4c(c3[C@H](COC1=O)N1C2[C@H]2c3c(cc(C)c(OC)c3O)C[C@@H]([C@@H]1O)N2C)OCO4 (stereo partly shown) [Compound 21c] | 1 ng/mL (≈ 1.46 nM) | 1 ng/mL (≈ 1.46 nM) | 1 ng/mL (≈ 1.46 nM) | 1 ng/mL (≈ 1.46 nM) | 1 ng/mL (≈ 1.46 nM) | –
CCCCCCCC(=O)O[C@H]1CS[C@@H]2c3c(OC(C)=O)c(C)c4c(c3[C@H](COC1=O)N1C2[C@H]2c3c(cc(C)c(OC)c3O)C[C@@H]([C@@H]1O)N2C)OCO4 (stereo partly shown) [Compound 21e] | 1 ng/mL (≈ 1.35 nM) | 1 ng/mL (≈ 1.35 nM) | 1 ng/mL (≈ 1.35 nM) | 1 ng/mL (≈ 1.35 nM) | 1 ng/mL (≈ 1.35 nM) | –
COc1c(C)cc2c(c1O)[C@@H]1C3[C@@H]4SC[C@H](OC(=O)/C=C/c5ccccc5)C(=O)OC[C@@H](c5c6c(c(C)c(OC(C)=O)c54)OCO6)N3[C@@H](O)[C@H](C2)N1C (stereo partly shown) [Compound 21h] | 1 ng/mL (≈ 1.34 nM) | 1 ng/mL (≈ 1.34 nM) | 1 ng/mL (≈ 1.34 nM) | 1 ng/mL (≈ 1.34 nM) | 1 ng/mL (≈ 1.34 nM) | –
COc1c(C)cc2c(c1O)[C@@H]1C3[C@@H]4SC[C@H](OS(C)(=O)=O)C(=O)OC[C@@H](c5c6c(c(C)c(OC(C)=O)c54)OCO6)N3[C@@H](O)[C@H](C2)N1C (stereo partly shown) [Compound 21ll] | 1 ng/mL (≈ 1.44 nM) | 1 ng/mL (≈ 1.44 nM) | 1 ng/mL (≈ 1.44 nM) | 1 ng/mL (≈ 1.44 nM) | 1 ng/mL (≈ 1.44 nM) | –
